Source: patent publication US20100143379A1 (priority 2005, published 2010)

Key:
Assay type in all cases: cell-based
ERK-1/2 = ERK-1/2 phosphorylation in COS-7/M6 stable transformants (Western blot); details: 20 nM; COS-7/CD74+CD44 cell line or primary macrophages
CD74 = CD74 phospho-serine sandwich ELISA; details: H-89 20 μM; RO-31-2880 10 μM; COS-7/CD74+CD44
Procedure: (§1) FIGS. 12A-12E show the phosphoserine content of CD74 and CD44 measured by ELISA. […] The ELISA values represent the mean±SD of triplicate measurements. Experiments were replicated twice. *P<0.02 versus corresponding control (Student's T test, two-tailed). […] Cell lysates were prepared and probed for PKA and PKC using phospho-specific, and total anti-PKA and anti-PKC antibodies.
The observation that the phosphoserine content of CD74 increased only in cells that expressed CD74 and full-length CD44 is consistent with the notion that the MIF-mediated phosphorylation of CD74 is dependent on the activity of the CD44 intracytoplasmic domain.
The serine phosphorylation of CD74 and CD44 was quantified by specific sandwich ELISA (Perez et al. (2003). Nature Immunol 4:1083-92). […] After several washes (0.5% Tween-20 in PBS), 0.2 μg/ml anti-phospho-serine antibody (Hypromatrix) conjugated with horseradish peroxidase was added, and immunoreactivity measured by the TMB reagent (DakoCytomation) and the data analyzed with SpectraMax Plus (Molecular Devices).
Cell lysates were collected and analyzed by immunoblots using a pair of anti-phospho-PICA and anti-(total)-PKA antibodies, a pair of anti-phospho-PKC (all from Cell Signaling) and anti-(total)-PKC (Santa Cruz) antibodies, or a pair of anti-phospho-p56^lck (Cell Signaling) and anti-(total) p56^lck (sc-433, Santa Cruz) antibodies.

CD44 = CD44 phospho-serine sandwich ELISA; details: H-89, 20 μM; RO-31-2880, 10 μM
Procedure: as §1
Ser325 is constitutively phosphorylated in resting cells, but undergoes de-phosphorylation in response to PKC activating stimuli such as phorbol esters. […] The effect of MIF-stimulation CD44 phosphorylation was analyzed in the COS-7 and MEF cell lines by sandwich ELISA using an anti-CD44 capture antibody to quantify CD44 phospho-serine residues (Perez et al. (2003). Nature Immunol. 4:1083-92). […]
The serine phosphorylation of CD74 and CD44 was quantified by specific sandwich ELISA (Perez et al. (2003). Nature Immunol 4:1083-92). […] After several washes (0.5% Tween-20 in PBS), 0.2 μg/ml anti-phospho-serine antibody (Hypromatrix) conjugated with horseradish peroxidase was added, and immunoreactivity measured by the TMB reagent (DakoCytomation) and the data analyzed with SpectraMax Plus (Molecular Devices). […]

[1] = test system: murine bone marrow progenitor cultures; experiment: BFU-E and CFU-E erythropoietin-dependent progenitor colony assays; details: 10-100 ng/ml MIF, 1-20 ng/ml TNFα, or 10-100 U/ml IFNγ
Procedure: Bone marrow cells were harvested, plated in a methylcellulose-based medium, and colony numbers scored after the addition of murine cytokines. Individual assays were performed in duplicate, and the data shown is a compilation of 3-6 independently performed experiments. % inhibition of colony formation is calculated with reference to a cytokine-minus control. All values shown are the mean±SD and are significant when compared to wells with no cytokine addition (P<0.05). CFU-E: colony forming unit—erythroid; BFU-E: burst-forming unit—erythroid.
The two inflammatory cytokines, TNFα and IFNγ, were also studied. TNFα and IFNγ are produced as a consequence of macrophage and T cell activation (McDevitt et al. 2004. Curr Hematol Rep 3:97-106). The appearance of BFU-E and CFU-E were quantified after culture with these cytokines, applied either alone or in combination.
BFU-E and CFU-E Progenitor Cell Assays. The progenitor cell (colony) assays were performed according to the standardized methods described previously (Martiney et al. 2000. Infection and Immunity 68:2259-2267) and protocols from StemCell Technologies (Vancouver; BC, Canada). Briefly, washed murine bone marrow cells were plated in sterile 35-mm dishes containing a methylcellulose-based medium and growth factors. The total number of bone marrow cells plated in duplicate culture dishes were as follows: 2×10^5 for CFU-E and 5×10^5 for BFU-E. MethoCult™ M3334 was utilized for the CFU-E and BFU-E colony assays. The media for CFU-E and BFU-E was volume adjusted by adding 1 part Isocove's MDM to 9 parts MethoCult™ M3334 to give final concentrations of the following components: 15% fetal bovine serum, 1% BSA, […] transferrin, […] insulin, 1% methylcellulose, 10^−4 M 2-mercaptoethanol, 2 mM L-glutamine and 3 units/ml erythropoietin. Each assay of different bone marrow progenitor cells was performed independently 3-6 times.

HIV-1ADA = experiment: HIV-1 replication in monocyte-derived macrophage cultures (RT activity); details: polymyxin B 10 μg/ml added to MIF 50 ng/ml
Procedure: Triplicate cultures of monocyte-derived macrophages were infected with HIV-1ADA in the presence of anti-MIF MAb (25 μg/ml) or isotype control. Virus replication was monitored by RT activity in culture supernatants. Results are presented as mean±SD. […] Control cultures were cultivated with PMB mixed with an isotype immunoglobulin with or without MIF.
To investigate this possibility, HIV-infected macrophages were cultured in the presence of a neutralizing anti-MIF antibody or isotype control. Triplicate cultures of monocyte-derived macrophages were infected with HIV-1ADA in the presence of anti-MIF MAb (25 μg/ml) or isotype control. Virus replication was monitored by RT activity in culture supernatants. […] Control cultures were cultivated with PMB mixed with an isotype immunoglobulin with or without MIF.

## COc1c(C=O)c(O)cc2c1C(=O)c1ccccc1C2=O [damnacanthal, reference compound]
ERK-1/2
  phosphorylation of ERK1/2: inhibition of the phosphorylation of p56^lck and ERK1/2

## O=S(=O)(NCCNC/C=C/c1ccc(Br)cc1)c1cccc2cnccc12 [H-89, reference compound]
CD74
  MIF stimulation of CD74 phosphorylation in presence of kinase inhibitor: decreased markedly
CD44
  serine phosphorylation of CD44 after MIF stimulation in presence of kinase inhibitor: reduced by PKA inhibition

## TNFα
[1]
  BFU-E and CFU-E colony formation: dose-dependently inhibited

## polymyxin B [reference compound]
HIV-1ADA
  inhibitory effect of MIF on viral replication: did not significantly reduce the inhibitory effect of MIF

B1: IFNγ: Recombinant mouse IFN-γ from R&D Systems (protein, UniProt P01580 23-155, looked up)
Interferon gamma: HGTVIESLESLNNYFNSSGIDVEEKSLFLDIWRNWQKDGDMKILQSQIISFYLRLFEVLKDNQAISNNISVIESHLITTFFSNSKAKKDAFMSIAKFEVNNPQVQRQAFNELIRVVHQLLPESSLRKRKRSRC
[1]
  BFU-E and CFU-E colony formation: dose-dependently inhibited
